What was measured:
MEG2 = molecular target: T1, MEG2 (Homo sapiens, UniProt P43378); assay: Enzyme inhibition assay against protein-tyrosine phosphatase MEG2 (pNPP hydrolysis); format: biochemical; conditions: recombinant His-tagged enzyme, 10 ng per well, pNPP 2 mM, pH 6.0, room temperature, 15 min preincubation, triplicate; NA = no activity; read-out: inhibitory activity against protein-tyrosine phosphatase MEG2, IC50 (converted)
T1 construct: 6xHis (N); made in house; host or cells: E. coli
T1 sequence (P43378 1-593): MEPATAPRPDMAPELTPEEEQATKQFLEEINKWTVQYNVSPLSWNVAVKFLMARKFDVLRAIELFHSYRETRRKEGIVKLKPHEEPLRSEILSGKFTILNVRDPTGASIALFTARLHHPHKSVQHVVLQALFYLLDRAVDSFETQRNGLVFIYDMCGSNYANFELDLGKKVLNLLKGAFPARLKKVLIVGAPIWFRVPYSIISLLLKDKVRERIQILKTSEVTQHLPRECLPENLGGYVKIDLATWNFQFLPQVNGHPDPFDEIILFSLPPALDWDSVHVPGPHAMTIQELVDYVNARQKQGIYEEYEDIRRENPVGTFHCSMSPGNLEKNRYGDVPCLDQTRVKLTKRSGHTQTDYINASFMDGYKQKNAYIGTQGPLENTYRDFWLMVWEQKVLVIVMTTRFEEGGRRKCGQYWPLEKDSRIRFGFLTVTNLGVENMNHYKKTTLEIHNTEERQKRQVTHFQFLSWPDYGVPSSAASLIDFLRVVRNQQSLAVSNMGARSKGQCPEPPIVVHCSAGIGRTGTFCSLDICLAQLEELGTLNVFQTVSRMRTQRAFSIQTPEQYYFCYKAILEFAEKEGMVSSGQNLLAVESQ
Experimental: (§1) The enzymatic assay was carried out at room temperature in 96-well plates. After the assay buffer which contained 100 mM Hepes (pH 6.0), 5 mM DTT 0.015 % Brij-35 and PTPase (20 ng PTP1B, 10 ng MEG2per well) was incubated with tested compounds for 15 min, the reaction was initiated by addition of the substrate p-nitrophenol phosphate (pNPP, Sigma, P4744, St. Louis, USA) at a final concentration of 2 mM. The activity of PTPase-catalyzed hydrolysis of pNPP was determined by measuring the amount of p-nitrophenol and the absorbance at 405 nm was recorded as the amount of p-nitrophenol. The IC50 value was determined by the non-linear curve fitting of the percentage inhibition versus inhibitor concentration plot. […] Louis, USA) was used for the positive control. All the assays were carried out in triplicate and the average results were presented.

PTP1Bc = molecular target: T2, PTP1Bc (Homo sapiens, UniProt P18031); assay: Enzyme inhibition assay against protein-tyrosine phosphatase PTP1Bc (pNPP hydrolysis); format: biochemical; conditions: recombinant His-tagged enzyme, 20 ng per well, pNPP 2 mM, pH 6.0, room temperature, 15 min preincubation, triplicate; NA = no activity; read-out: inhibitory activity against protein-tyrosine phosphatase PTP1Bc, IC50 (converted)
T2 sequence (P18031 1-298 limits assumed): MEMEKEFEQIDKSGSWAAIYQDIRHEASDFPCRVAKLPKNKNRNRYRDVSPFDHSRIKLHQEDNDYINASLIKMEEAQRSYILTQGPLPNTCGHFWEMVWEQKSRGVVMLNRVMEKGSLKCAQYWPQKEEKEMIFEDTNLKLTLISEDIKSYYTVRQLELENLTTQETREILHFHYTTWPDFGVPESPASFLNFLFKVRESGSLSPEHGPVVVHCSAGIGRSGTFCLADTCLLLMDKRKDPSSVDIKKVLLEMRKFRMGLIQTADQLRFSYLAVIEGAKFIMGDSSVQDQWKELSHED
Experimental: as §1

| Compound | IC50 (MEG2) [µM] | IC50 (PTP1Bc) [µM] |
| --- | --- | --- |
| CC1=CC(O)C(C)(O)C(C)CCC2(C)OC2CC1 (stereo not shown) [Compound 1, 6,7-epoxy-10E-humulen-1,2-diol] | 31.5 | 39.3 |
| CC1(C)C=CC(O)C2(C)OC2CCC2(C)OC2C1 (stereo not drawn) [Compound 3, 6,7:10,11-diepoxy-3E-humulen-5β-ol] | – | 59.8 |
| C[C@H]1[C@H](C)CC[C@]2(C(=O)O)CC[C@]3(C)C(=CC[C@@H]4[C@@]5(C)CC[C@H](O)C(C)(C)[C@@H]5CC[C@]43C)[C@H]12 [Ursolic acid, reference compound] | 1.75 | – |

From article PMC4111878, “Three New Humulane Sesquiterpenes from Cultures of the Fungus Antrodiella albocinnamomea” (Natural Products and Bioprospecting, 2014)
